Experimental data: ChEMBL document CHEMBL1155753, “Verbalactone, a new macrocyclic dimer lactone from the roots of Verbascum undulatum with antibacterial activity” (2001)
In brackets after ≈: the same amount, converted by molar mass.

Columns and labels:
Escherichia coli = experiment: Antibacterial activity against Escherichia coli ATCC 25922 after 24 hrs by agar dilution method; type: functional; details: ATCC 25922, 24 h
Staphylococcus aureus = experiment: Antibacterial activity against Staphylococcus aureus ATCC 25923 after 24 hrs by agar dilution method; type: functional; details: ATCC 25923, 24 h
Pseudomonas aeruginosa = experiment: Antibacterial activity against Pseudomonas aeruginosa ATCC 27853 after 24 hrs by agar dilution method; type: functional; details: ATCC 27853, 24 h
Klebsiella pneumoniae = experiment: Antibacterial activity against Klebsiella pneumoniae isolate after 24 hrs by agar dilution method; type: functional
[1] = tested on: Salmonella enterica subsp. enterica; experiment: Antibacterial activity against Salmonella enteritidis isolate after 24 hrs by agar dilution method; type: functional, Salmonella enterica subsp. enterica serovar Enteritidis
[2] = tested on: Staphylococcus epidermidis; experiment: Antibacterial activity against Staphylococcus epidermidis isolate after 24 hrs by agar dilution method; type: functional
Klebsiella aerogenes = experiment: Antibacterial activity against Enterobacter aerogenes isolate after 24 hrs by agar dilution method; type: functional
Lacticaseibacillus casei = experiment: Antibacterial activity against Lactobacillus casei isolate after 24 hrs by agar dilution method; type: functional

MIC (Escherichia coli): 250 mg/L (≈ 671 µM) | MIC (Staphylococcus aureus): 62.5 mg/L (≈ 168 µM) | MIC (Pseudomonas aeruginosa): 500 mg/L (≈ 1340 µM) | MIC (Klebsiella pneumoniae): 250 mg/L (≈ 671 µM) | MIC [1]: 125 mg/L (≈ 336 µM) | MIC [2]: 62.5 mg/L (≈ 168 µM) | MIC (Klebsiella aerogenes): > 500 mg/L | MIC (Lacticaseibacillus casei): > 125 mg/L
SMILES: CCCCC[C@@H]1C[C@@H](O)CC(=O)O[C@H](CCCCC)C[C@@H](O)CC(=O)O1 [VERBALACTONE]
